Like-named read-outs stand apart in the source and are kept apart here.
Tests used:
[1] = system: Tg26 mice; assay: Tg26 (HIV-1 transgenic) mouse model of kidney disease; assay type: in vivo
Description: (§1) Tg26 mice of FVB/N genetic background bearing a defective HIV-1 provirus lacking gag-pol have been described by Feng et al. [J Am Soc Nephrol 2009; 20: 2138-2146]. Six-week old heterozygous Tg26 mice were used in this study. Wildtype littermates were used as controls. Mice in the treatment group received test compound dissolved in DMSO and diluted in saline (5% DMSO) by oral gavage at a dose of 200 μg/kg body weight per day. Mice in the control group received the same volume of 5% DMSO/saline vehicle. The mice were treated for a total of 4 weeks and sacrificed at age of 10 weeks. The UUO model was established in male C57BL/6 mice (The Jackson Laboratory) by ligation of the left ureter as described by Jin et al. [Lab Invest, 93: 801-811, 2013]. After the operation, UUO mice were randomly divided into control group (vehicle) and treatment group. Mice were fed with test compound by oral gavage at a dose of 200 μg/kg body weight per day for 7 days.
(§2) Immunofluorescence staining was conducted on paraffin-embedded kidney sections using standard procedures. Briefly, deparaffinized sections were incubated with primary antibody against collagen I (1:50, #NB6-00-4-8, Novus) at 4° C. overnight. After being washed, sections were incubated with Alexa Fluor488-labelled second antibody (1:200, #A11034, Invitrogen) at room temperature for 1 hour in darkness. After nuclei were stained with 4′, 6-diamidino-2-phenyllindole (DAPI) slides were mounted using Aqua PolyMount (Polysciences, Inc) and images were acquired using AxioVision IIe microscope with a digital camera.
(§3) Renal fibrosis was evaluated histologically by Sirius red staining on paraffin slides of mice kidney tissues according to the manufacturer's instructions (#ab150681, Abcam). Masson's trichrome staining on paraffin slices of mice kidney tissue was performed according to manufacturer's instructions (#87019, Thermo Scientific).
Tg26 mice are known to develop proteinuria starting from 4 weeks of age and the proteinuria peaks usually around 8-10 weeks of age. Tg26 mice also develop significant glomerulosclerosis and renal failure by 8-10 weeks of age. To determine whether compounds of the invention could reverse kidney injury that has been already developed, we started to treat Tg26 mice with either vehicle or Example 1 from age of 6 weeks for a total of 4 weeks, and the mice were sacrificed at age of 10 weeks.

[2] = system: UUO mice; assay: Unilateral ureteral obstruction (UUO) mouse model of renal fibrosis; assay type: in vivo; conditions: for fibrosis at 14 days post-surgery (picosirius red, Masson's trichrome, Collagen I immunofluorescence): administration starting at day 7 post-surgery (day 7 to 14)
Description: as §1, §2, §3
The unilateral ureteral obstruction (UUO) mouse model, a commonly used model for renal fibrosis, was used to determine whether compounds of the invention can ameliorate fibrosis in vivo. […]

[3] = system: Smad3-responsive luciferase reporter (SBE4-Luc); conditions: for suppression of Smad3 reporter activity, inhibition compared to DMSO control: absence of TGF-β1 stimulation
Description: Renilla luciferase reporter plasmid (pRL) was purchased from Promega.
Forty-eight hours post-transfection cells were treated with assigned concentrations of test compound together with or without 10 ng/ml TGF-β1 for 16 hours. Luciferase activities were measured using the Dual-Luciferase Reporter Assay kit (Promega, #E1910). Data are expressed as the ratio of firefly luciferase activity over Renilla luciferase activity. […] 48 hours after transfection, luciferase activities were measured.

[4] = system: Smad3 phosphorylation; assay: TGF-β1-induced Smad3 phosphorylation in hRTECs (western blot); assay type: cell-based, human; conditions: pretreatment, TGF-β1 5 ng/ml for 20 minutes
Description: HEK 293T (293T) cells (ATCC) were cultured in Dulbecco's Modified Eagle's medium (Invitrogen) containing 10% fetal bovine serum (FBS), 0.5% penicillin and streptomycin at 37° C. and 5% CO2 humidified environment. Human primary tubular cells (PromoCell GmbH, Heidelberg, Germany) were cultured in Renal Epithelial Cell Growth Medium-2 (Promocell GmbH) with supplements according to manufacturer's protocol human primary renal tubular epithelial cells with <5 passages were used for all studies. For HIV infection of hRTECs, pNL4-3:ΔG/P-EGFP, a gag/poi-deleted HIV-1 construct that contains EGFP in the gag open reading frame, and pHR-IRES-EGFP, a control EGFP construct, were used to generate the VSV-G pseudotyped virus. Cells were infected with HIV pseudotyped virus or control virus for 2 days before the treatment with test compound.
Cells were lysed in M-PER mammalian protein extraction reagent (#78501, Thermo Fisher Scientific, NY) containing protease inhibitor cocktail (#11836153001, Roche) and phosphatase inhibitors (50 mM NaF, 10 mM β-glycerophosphate, 5 mM sodium pyrophosphate, 2 mM Na3VO4). Total protein concentration was measured using the Bradford reagent (#500-0006, Bio-Rad). Proteins were separated on SDA-PAGE and transferred to nitrocellulose membrane. […]

[5] = Tg26 mice treated from age of 6 weeks for 4 weeks, vs vehicle
[6] = Tg26 mice, post-treatment (week 4), 200 μg/kg/day oral gavage
[7] = Tg26 mice, pre-treatment (week 0)
[8] = Wildtype mice, post-treatment (week 4), 200 μg/kg/day oral gavage
[9] = Wildtype mice, pre-treatment (week 0)

COc1ccc2cc(-c3nc(-c4ccc(Br)cc4)no3)cnc2c1 [Example 1, 3-(4-Bromophenyl)-5-(7-methoxyquinolin-3-yl)-1,2,4-oxadiazole]
Smad3 phosphorylation and α-SMA expression ([1]; Tg26 mice): significantly reduced | kidney injury and renal fibrosis (picrosirius red, Masson's trichrome, Collagen I immunofluorescence) ([1]; Tg26 mice): attenuated kidney injury and renal fibrosis | proteinuria [1, 5]: significantly reduced proteinuria | renal function [1, 5]: improved renal function | BUN [1, 6]: 22.404 ± 4.678 mg/dL | Urinary Albumin:Creatinine Ratio [1, 6]: 19.917 ± 5.838 µg/µg | BUN [1, 7]: 23.799 ± 1.990 mg/dL | Urinary Albumin:Creatinine Ratio [1, 7]: 23.321 ± 12.339 µg/µg | BUN [1, 8]: 18.875 ± 3.485 mg/dL | Urinary Albumin:Creatinine Ratio [1, 8]: 0.036 ± 0.008 µg/µg | BUN [1, 9]: 21.091 ± 3.009 mg/dL | Urinary Albumin:Creatinine Ratio [1, 9]: 0.033 ± 0.007 µg/µg | expression of Wnt/β-catenin pathway genes (Axin2, c-myc, Twist), real-time PCR ([2]; UUO kidneys, treatment day 7 to 14): significantly diminished | Smad3 phosphorylation and α-SMA expression in UUO kidneys (western blot) ([2]; UUO mice, 200 μg/kg/day oral gavage, day of surgery to 7 days post-surgery): significantly decreased | renal fibrosis (picrosirius red, Masson's trichrome, Collagen I immunofluorescence) ([2]; UUO mice, 200 μg/kg/day oral gavage, day of surgery to 7 days post-surgery, vs vehicle): significantly attenuated renal fibrosis | fibrosis at 14 days post-surgery (picosirius red, Masson's trichrome, Collagen I immunofluorescence) ([2]; UUO mice, listed as BT173): significant attenuation of fibrosis | fibrosis at 14 days post-surgery (picosirius red, Masson's trichrome, Collagen I immunofluorescence) ([2]; UUO mice, listed as Example I): showed efficacy in amelioration of fibrosis progression | p53 activation (phosphorylation) in UUO kidneys ([2]; UUO mice, treatment day 7 to 14): no effects | p-Smad3 and α-SMA in kidney cortex (western blot) ([2]; UUO mice, treatment day 7 to 14, vs vehicle-treated UUO kidneys): marked reduction | Luciferase Activity (Relative to DMSO control) −TGFβ [3]: 0.197 | suppression of Smad3 reporter activity, inhibition compared to DMSO control ([3]; 3.3 μm): ~40% | suppression of Smad3 reporter activity, inhibition compared to DMSO control ([3]; 10 μm): ~70% | SBE4-luciferase activity, inhibition compared to TGFβ1-treated only control ([3]; presence of TGF-β1, first of three tested doses): ~40% | SBE4-luciferase activity, inhibition compared to TGFβ1-treated only control ([3]; presence of TGF-β1, second of three tested doses): ~60% | SBE4-luciferase activity, inhibition compared to TGFβ1-treated only control ([3]; presence of TGF-β1, third of three tested doses): ~75% | Smad3 phosphorylation induced by TGF-β1 [4]: gradually inhibited
